Where two headings read alike, the source gives them in different places.
Tests used:
tubulin = assay: photometric measurement of polymerisation of tubulin and depolymerisation of microtubules (350 nm); assay type: biochemical, bovine; settings: photometry, compared with taxol/control; for effect on polymerisation of tubulin: 37° C., tubulin 2 mg protein/ml; for stabilisation of microtubules (effect on depolymerisation): depolymerisation initiated by reducing temperature to 15° C.
Protocol: Bovine brains (each 330 g) are removed from freshly opened cows' heads and are transported in ice-cooled PM4-M buffer. Each brain is freed of the meninges and also of any thrombi and is homogenised with sufficient PM4M buffer in a cooling chamber. The homogenised material from 2 bovine brains is made up to a total volume of 1.0 liter with a total of 500 ml of buffer and is subjected to a first centrifugation (GSA rotor, 15 minutes, 4° C., 6500 g). The supernatant is freed of the sebaceous skin on the surface, filtered over 4 layers of thin muslin, transferred into counter-balanced centrifuge tubes (420 ml) and centrifuged again (Ti 45 rotor, 96000 g, 75 minutes, 4° C.). The supernatant is removed by pipette through the pellet and filtered over 6 layers of thin muslin, and a 50 mM GTP solution in 0.001M bicarbonate/PBS is added to obtain a final concentration of 1 mM. A first polymerisation is carried out in counter-balanced centrifuge tubes for 45 minutes in a water bath warmed to 37° C. The microtubules that have formed are removed by centrifugation (Ti 45 rotor, 27° C., 96000 g, 60 minutes), the supernatant is carefully removed by pipette and the very soft, opalescent pellet is carefully separated from the wall with a spatula. 40 ml of cold PM buffer are then added to the pellet, followed by homogenisation using a small glass mortar and incubation overnight (from 12 to 16 hours) on ice in counter-balanced centrifuge tubes in a cooling chamber. The depolymerisation product is removed by centrifugation in the Ti 60 rotor (4° C.; 96000 g, 60 minutes) and the supernatant is diluted with PM8-M buffer to 1:1, incubated in counter-balanced centrifuge tubes at 37° C. for 45 minutes and centrifuged again (Ti 45 rotor, 27° C., 96000 g, 60 minutes). The supernatant is carefully removed by pipette and the very soft opalescent pellet is taken up in 20 ml of cold PM buffer, homogenised carefully using a small glass mortar and incubated on ice for 30 minutes. The renewed centrifugation (Ti 60 rotor, 4° C., 96000 g, 60 minutes) gives tubulin, the protein content of which is determined according to Pearce or according to a photometric measurement at 280 nm. In the protein determination, dilutions of isolated material to PM buffer of 1:10, 1:20 and 1:40 are used. The PM buffer has own extinction and is deducted as a zero value from the determined protein content. The isolated material is diluted with PM buffer to the intended protein concentration (2 mg/ml).
The measurement of the polymerisation of tubulin and the depolymerisation of microtubules is carried out by photometry. Before the measurement, the tubulin prepared in accordance with Application Example 1 is thawed and degassed for 15 minutes. The photometer is set to a wavelength of 350 nm. 3 μl of solvent/sample, 6 μl of GTP ([…] final.) and 291 μl of tubulin (2 mg protein/ml) are pipetted into the dry and cleaned dishes (10 mm). The sample is carefully stirred (without causing air bubbles), immediately placed in dish carriages and the measuring operation is started at 37° C. Once the polymerisation maximum has been reached (solvent control and taxol 1E-5 mol/l after 20 minutes), the depolymerisation is initiated by reducing the temperature to 15° C. The measuring operation is stopped at the end of the depolymerisation and the course of the change in absorption is represented in graph form as a function of time and temperature (see FIG. 1).

[1] = system: MDA MB 435 mammary carcinoma cells; assay: anti-proliferative effect on tumour cell line, MTT method; assay type: cell-based; settings: for IC50: Homo sapiens; for inhibiting (anti-proliferative) activity compared with taxol, in words: MDA MB 435 cells, MTT, comparison with taxol
Protocol: The addition of the substance in several concentrations is carried out on day 1. The anti-proliferative effect is determined on day 3 using the MTT method. The IC50 values are determined therefrom.

[2] = MDA MB 435 mammary carcinoma cells, 5000 cells/well, substance added day 1, determined day 3, MTT, read-out: MDA-MB 435 cells IC50

Row | Compound | effect on polymerisation of tubulin (tubulin) | stabilisation of microtubules (effect on depolymerisation) (tubulin) | IC50 [1, 2] [nM] | inhibiting (anti-proliferative) activity compared with taxol, in words [1] | IC50 ([1]; MDA-MB-435, read-out: MDA-MB 435 cells IC50) [nM]
1 | COC(=O)N[C@@H](c1ccncc1)[C@@H](O)C(=O)O[C@H]1C[C@@]2(O)[C@@H](OC(=O)c3ccccc3)[C@@H]3[C@]4(OC(C)=O)CO[C@@H]4C[C@H](O)[C@@]3(C)C(=O)[C@H](OC(C)=O)C(=C1C)C2(C)C [Compound 1, 3'-desphenyl-3'-(4-pyridyl)-3'-N-debenzoyl-3'-N-methoxycarbonyl-taxol] | inhibits the polymerisation | stabilises the microtubules that have formed distinctly better than taxol | 2 | activity similar to that of taxol | 
2 | COC(=O)N[C@@H](c1ccncc1)[C@@H](O)C(=O)O[C@H]1C[C@@]2(O)[C@@H](OC(=O)c3ccccc3)[C@@H]3[C@]4(OC(C)=O)CO[C@@H]4C[C@@H](O)[C@@]3(C)C(=O)[C@H](OC(C)=O)C(=C1C)C2(C)C [Compound 2, 3'-desphenyl-3'-(4-pyridyl)-3'-N-debenzoyl-3'-N-methoxycarbonyl-7-epi-taxol] | much more pronounced acceleration of the polymerisation of tubulin | stabilises the microtubules that have formed very much better than taxol | 0.8 | significantly improved inhibiting activity compared with taxol | 
3 | COC(=O)N[C@@H](c1ccncc1)[C@@H](O)C(=O)O[C@H]1C[C@@]2(O)[C@@H](O)[C@@H]3[C@]4(OC(C)=O)CO[C@@H]4C[C@H](O)[C@@]3(C)C(=O)[C@H](OC(C)=O)C(=C1C)C2(C)C [Compound 3, 3'-desphenyl-3'-(4-pyridyl)-2,3'-N-bisdebenzoyl-3'-N-methoxycarbonyl-taxol] | much more pronounced acceleration of the polymerisation of tubulin | stabilises the microtubules that have formed better than taxol | 8000 |  | 
4 | COC(=O)N[C@@H](c1ccncc1)[C@@H](O)C(=O)O[C@H]1C[C@@]2(O)[C@@H](OC(=O)c3ccccc3)[C@@H]3[C@]4(OC(C)=O)CO[C@@H]4C[C@H](O)[C@@]3(C)C(=O)[C@H](O)C(=C1C)C2(C)C [Compound 4, 3'-Desphenyl-3'-(4-pyridyl)-3'-N-debenzoyl-3'-N-methoxycarbonyl-10-desacetyl-taxol] | does not differ from taxol in respect of the polymerisation behaviour of tubulin | stabilise the microtubules that have formed substantially better than taxol | 60 |  | 
5 | CC(=O)O[C@H]1C(=O)[C@@]2(C)[C@H]([C@H](OC(=O)c3ccccc3)[C@]3(O)C[C@H](OC(=O)[C@H](O)[C@@H](NC(=O)c4ccccc4)c4ccccc4)C(C)=C1C3(C)C)[C@]1(OC(C)=O)CO[C@@H]1C[C@@H]2O [Taxol, reference compound] | speeds up the polymerisation of tubulin in comparison with the control | inhibits depolymerisation |  |  | 3

From patent publication US6162920A, “Taxane derivatives having a pyridyl substituted C13 side chain, their preparation and their use as anti-tumor agents” (Schering Aktiensgesellschaft, priority 1996, dated 2000)
